Experimental data as given in patent US8722629B2, “Auristatin derivatives and use thereof” (Seattle Genetics, Inc., priority 2010, dated 2014).
Counter-ions that a name gives are not always drawn. Starred links: 1 amine or outer side, 2 acyl side, 3 side chain; linkers in the order of their positions; H or OH if unused. Non-standard residues stand in square brackets, D forms with d. Residues, ends and D or L forms follow the SMILES beside them. *: point of attachment. Dolaproine = CO[C@@H]([C@@H]1CCCN1)[C@@H](C)C(=O)O; X2 = C[C@@H](c1ccccc1)[C@H](N[*:1])C(=O)[*:2]; X1 = O=C([C@]1(N[*:1])C[C@@H]1c1ccccc1)[*:2]; Dil = CC[C@H](C)[C@H](NC)[C@@H](CC(=O)O)OC; Oxazinan2yl(1,2) = C1CCN(*)OC1; NMeV = CN[C@H](C(=O)O)C(C)C; X3 = c1ccc2c(c1)CON(*)C2

Legend:
[1] = Plasma stability in vitro, human plasma; format: in vitro ADME
Protocol: (§1) B-4. Determination of the Plasma Stability in vitro:
(§2) 1 mg of the test substance in question was dissolved in 0.5 ml of acetonitrile/DMSO (9:1). From this solution, 20 μl were removed and added to 1 ml of rat or human plasma at 37° C. (plasma of male Wistar rats with Li heparin from Harlan & Winkelmann or fresh human leukocyte-depleted plasma originating from a whole blood sample). From this plasma solution, which was shaken vigorously, 100 μl aliquots were removed immediately after addition of the sample (initial value as reference) and then after 5, 10, 30, 60, 120, 180 and 240 minutes and optionally after 24 hours and added to 300 μl of acetonitrile. The precipitated plasma proteins were removed by centrifugation at 5000 rpm for 10 minutes, and 30 μl of the supernatant were analysed by HPLC for its content of unmodified test substance. Quantification was via the area percentages of the corresponding peaks.
HPLC Method for Human Plasma:
Instrument: Agilent 1100 with DAD, binary pump, autosampler, column oven and thermostat;
column: Kromasil 100 C18, 250 mm×4 mm, 5 μm; column temperature: 45° C.; mobile phase A: 5 ml of perchloric acid/1 of water, mobile phase B: acetonitrile; gradient: 0-3 min 98% A, 2% B; 3-10 min 65% A, 35% B; 10-15 min 40% A, 60% B; 15-21 min 10% A, 90% B; 21-22 min 10% A, 90% B; 22-24 min 98% A, 2% B; 24-26 min 98% A, 2% B; flow rate: 2 ml/min; UV detection: 220 nm.
(§3) The test substance was incubated in rat or human plasma at 37° C. over a period of 5 h with gentle stirring. At different points in time (0, 2, 5, 10, 20, 30, 60, 120, 180 and 300 minutes), a 100 μl aliquot was removed. Following addition of internal standard (10 μl), the proteins were precipitated by addition of 200 μl of acetonitrile and the mixture was centrifuged in an Eppendorf centrifuge for 5 minutes. After addition of 150 μl of ammonium acetate buffer pH 3 to 150 μl of the supernatant, the content of unmodified test substance was analysed by LC/MSMS.

[2] = test system: human colon carcinoma cell line HT29 wt (wild type); assay: Antiproliferative effect on the HT29 wt cell line (MTT assay); format: cell-based; conditions: Homo sapiens, HT-29, HT29 wt cells, 10% FCS, incubation 48 h to 96 h
Protocol: B-2. Determination of the Antiproliferative Effect on the HT29 Wt Cell Line:
A defined cell number of the human colon carcinoma cell line HT29 wt (wild type) was sown in a 96-well microtiter plate in complete medium (10% FCS-RPMI) (2500 cells/well) and incubated at 37° C./5% CO2 overnight. After 18 h, the sowing medium was replaced by fresh medium with 10% FCS. Treatment was initiated by addition of the respective test substance. From the substances to be investigated, dose/activity curves in a concentration range of from 10^−5 M to 10^−14 M (1:10-dilution series) were determined. The chosen incubation times were from 48 h to 96 h. Pro-liferation was determined with the aid of the MTT assays (ATCC, Manassas, Va., USA, catalogue No. 30-1010K). After the incubation time, the MTT reagent was incubated with the cells for 4 h, and the cells were subsequently lysed by adding the detergent overnight. The dye formed was detected at 570 nm. Proliferation of cells which had not been treated with test substance, but had otherwise been treated identically, was defined as 100%. The data obtained from this test are triple determinations, and at least two independent experiments were carried out.

[3] = test system: human renal cancer cell line 786-0; assay: Antiproliferative effect on the 786-0 RCC cell line (MTT assay); format: cell-based; conditions: Homo sapiens, 786-0, 786-0 cells, incubation 48 h to 96 h
Protocol: B-1. Determination of the Antiproliferative Effect on the 786-0 RCC Cell Line:
A defined cell number of the human renal cancer cell line 786-0 was sown in a 96-well microtiter plate in complete medium (2500 or 7000 cells/well) and incubated at 37° C./5% CO2 overnight. After 18 h, the sowing medium was replaced by serum-free medium or medium with 2% FCS. Treatment was initiated by addition of the respective test substance in varying concentration (10^−5 M to […]). The chosen incubation times were from 48 h to 96 h. Proliferation was determined with the aid of the MTT assays (ATCC, Manassas, Va., USA, catalogue No. 30-1010K). After the incubation time, the MTT reagent was incubated with the cells for 4 h, and the cells were subsequently lysed by adding the detergent overnight. The dye formed was detected at 570 nm. […] The data obtained from this test are triple determinations, and at least two independent experiments were carried out.

[4] = Plasma stability in vitro, rat plasma; format: in vitro ADME; conditions: 37° C.; for half-life at 39.2 µg/ml: male, Wistar, rat plasma (Li heparin), Method A (HPLC)
Protocol: as §1, §2
HPLC Method for Rat Plasma:
Instrument: Agilent 1200 with DAD, binary pump, autosampler, column oven and thermostat; column: Kromasil 100 C18, 250 mm×4 mm, […]; column temperature: 45° C.; mobile phase A: 5 ml of perchloric acid/1 of water, mobile phase B: acetonitrile; gradient: 0-8 min 98% A, 2% B; 8-15 min 56% A, 44% B; […] 10% A, 90% B; 20-21 min 10% A, 90% B; […] 98% A, 2% B; […] 98% A, 2% B; flow rate: 2 ml/min; UV detection: 220 nm.
as §3

SMILES	degradation in human plasma after 24 h [1]	IC50 [2] [nM]	IC50 [3] [nM]	half-life ([4]; Method B (LC/MSMS)) [h]	half-life at 39.2 µg/ml [4] [h]	t1/2 ([4]; Method A) [min]	degraded in human plasma during 24 h [1]
CC[C@H](C)[C@@H]([C@@H](CC(=O)N1CCC[C@H]1[C@H](OC)[C@@H](C)C(=O)N[C@@H](Cc1ccccc1)C(=O)N1CCCCO1)OC)N(C)C(=O)[C@@H](NC(=O)[C@@H](NC)C(C)C)C(C)C [Example 1, N-Methyl-L-valyl-N-[(3R,4S,5S)-3-methoxy-1-{(2S)-2-[(1R,2R)-1-methoxy-2-methyl-3-{[(2S)-1-(1,2-oxazinan-2-yl)-1-oxo-3-phenylpropan-2-yl]amino}-3-oxopropyl]pyrrolidin-1-yl}-5-methyl-1-oxoheptan-4-yl]-N-methyl-L-valinamide, trifluoroacetic acid salt] (H-[NMeV]V[Dil][Dolaproine]F-{Oxazinan2yl(1,2)})	no degradation was observed	0.1	4	–	–	–	–
CC[C@H](C)[C@@H]([C@@H](CC(=O)N1CCC[C@H]1[C@H](OC)[C@@H](C)C(=O)N[C@H](C(=O)N1CCCCO1)[C@@H](C)c1ccccc1)OC)N(C)C(=O)[C@@H](NC(=O)[C@@H](NC)C(C)C)C(C)C [Example 4, N-Methyl-L-valyl-N-[(3R,4S,5S)-3-methoxy-1-{(2S)-2-[(1R,2R)-1-methoxy-2-methyl-3-{[(2S,3S)-1-(1,2-oxazinan-2-yl)-1-oxo-3-phenylbutan-2-yl]amino}-3-oxopropyl]pyrrolidin-1-yl}-5-methyl-1-oxoheptan-4-yl]-N-methyl-L-valinamide, trifluoroacetic acid salt] (H-[NMeV]V[Dil][Dolaproine][X2]-{Oxazinan2yl(1,2)})	–	0.2	14	3	–	–	–
CC[C@H](C)[C@@H]([C@@H](CC(=O)N1CCC[C@H]1[C@H](OC)[C@@H](C)C(=O)N[C@@]1(C(=O)N2CCCCO2)C[C@@H]1c1ccccc1)OC)N(C)C(=O)[C@@H](NC(=O)[C@@H](NC)C(C)C)C(C)C [Example 17, N-Methyl-L-valyl-N-[(3R,4S,5S)-3-methoxy-1-{(2S)-2-[(1R,2R)-1-methoxy-2-methyl-3-{[(1S,2R)-1-(1,2-oxazinan-2-ylcarbonyl)-2-phenylcyclopropyl]amino}-3-oxopropyl]pyrrolidin-1-yl}-5-methyl-1-oxoheptan-4-yl]-N-methyl-L-valinamide, trifluoroacetic acid salt] (H-[NMeV]V[Dil][Dolaproine][X1]-{Oxazinan2yl(1,2)})	no degradation was observed	0.5	4	–	> 24	–	–
CC[C@H](C)[C@@H]([C@@H](CC(=O)N1CCC[C@H]1[C@H](OC)[C@@H](C)C(=O)N[C@@]1(C(=O)N2Cc3ccccc3CO2)C[C@@H]1c1ccccc1)OC)N(C)C(=O)[C@@H](NC(=O)[C@@H](NC)C(C)C)C(C)C [Example 18, N-Methyl-L-valyl-N-[(3R,4S,5S)-1-{(2S)-2-[(1R,2R)-3-{[(1S,2R)-1-(1,4-dihydro-3H-2,3-benzoxazin-3-ylcarbonyl)-2-phenylcyclopropyl]amino}-1-methoxy-2-methyl-3-oxopropyl]pyrrolidin-1-yl}-3-methoxy-5-methyl-1-oxoheptan-4-yl]-N-methyl-L-valinamide, trifluoroacetic acid salt] (H-[NMeV]V[Dil][Dolaproine][X1]-X3)	–	1.2	–	–	> 24	–	–
CC[C@H](C)[C@@H]([C@@H](CC(=O)N1CCC[C@H]1[C@H](OC)[C@@H](C)C(=O)N[C@H](Cc1ccccc1)C(=O)N1CCCCO1)OC)N(C)C(=O)[C@@H](NC(=O)[C@@H](NC)C(C)C)C(C)C [Example 21, N-Methyl-L-valyl-N-[(3R,4S,5S)-3-methoxy-1-{(2S)-2-[(1R,2R)-1-methoxy-2-methyl-3-{[(2R)-1-(1,2-oxazinan-2-yl)-1-oxo-3-phenylpropan-2-yl]amino}-3-oxopropyl]pyrrolidin-1-yl}-5-methyl-1-oxoheptan-4-yl]-N-methyl-L-valinamide, trifluoroacetic acid salt] (H-[NMeV]V[Dil][Dolaproine][dF]-{Oxazinan2yl(1,2)})	no degradation was observed	–	–	–	–	–	–
CC[C@H](C)[C@@H]([C@@H](CC(=O)N1CCC[C@H]1[C@H](OC)[C@@H](C)C(=O)N[C@@]1(C(=O)N2CCCCO2)C[C@@H]1c1ccccc1)OC)N(C)C(=O)[C@@H](NC(=O)[C@H](C(C)C)N(C)CCCC(=O)O)C(C)C [Example 23, N-(3-Carboxypropyl)-N-methyl-L-valyl-N-[(3R,4S,5S)-3-methoxy-1-{(2S)-2-[(1R,2R)-1-methoxy-2-methyl-3-{[(1S,2R)-1-(1,2-oxazinan-2-ylcarbonyl)-2-phenylcyclopropyl]amino}-3-oxopropyl]-pyrrolidin-1-yl}-5-methyl-1-oxoheptan-4-yl]-N-methyl-L-valinamide]	–	0.7	11	–	> 24	–	–
CC[C@H](C)[C@@H]([C@@H](CC(=O)N1CCC[C@H]1[C@H](OC)[C@@H](C)C(=O)N[C@@H](Cc1ccccc1)C(=O)OC)OC)N(C)C(=O)[C@@H](NC(=O)[C@@H](NC)C(C)C)C(C)C [MMAF-OMe, Monomethylauristatin F methyl ester, reference compound] (H-[NMeV]V[Dil][Dolaproine]F-OMe)	–	–	–	–	–	< 1	about 20%
